Data on four compounds can be found in ChEMBL document CHEMBL1201862, “PubChem BioAssay data set” (2004).

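Assay format: 96-well plates, 48-hour exposure. At the GI50, growth is halved.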 Calls of active or inactive are those of the source. Cut-off read from the data, not from the text of the source: active = GI50 up to about 1.1 µM and inactive = higher. Bounds are passed on as bounds.

Test systems include CCRF-CEM; HCT-15; HOP-92; MCF7; MDA-N; MOLT-4; NCI-H522; NCI/ADR-RES; OVCAR-4; OVCAR-5; OVCAR-8; PC-3; SF-268; SK-MEL-5; SK-OV-3; SNB-19; UACC-62; RXF 393; SF-539.
Holding throughout (assay): NCI-60 cell line screen, 48 h

With `CC1(C)COC(c2cccc(C(=O)c3ccccc3)c2)=N1`, the GI50 in the experiment with CCRF-CEM is 39.4 µM (inactive); with HCT-15, 36.2 µM; in the experiment on HOP-92 it was 25.9 µM (inactive); with MCF7 it was 47.8 µM (inactive); with MDA-N, 41 µM (inactive); with MOLT-4, 24.5 µM (inactive). Further, the GI50 in the experiment on NCI-H522 was 16.8 µM (inactive); in the experiment with NCI/ADR-RES, 31.6 µM (inactive); with OVCAR-4, 31 µM (inactive); in the experiment on OVCAR-5 it was > 100 µM (inactive); in the experiment on OVCAR-8, 48.5 µM (inactive); in the experiment with PC-3, 38.9 µM (inactive). Besides, the GI50 in the experiment on SF-268 was 90.4 µM (inactive); in the experiment with SK-MEL-5, 17.1 µM (inactive); in the experiment on SK-OV-3, > 100 µM (inactive); in the experiment on SNB-19, 51.4 µM (inactive); with UACC-62 it was 41.9 µM (inactive).

As for `CCN(CC)CCC(=O)c1ccc(Oc2ccc(F)cc2)cc1`, the GI50 with CCRF-CEM is 20.6 µM (inactive); in the experiment with HCT-15 it was 18.2 µM; in the experiment on HOP-92 it was 18.3 µM (inactive); in the experiment on MCF7, 17.9 µM (inactive); in the experiment with MDA-N it was 18 µM (inactive); in the experiment with MOLT-4, 20.2 µM (inactive). Besides, the GI50 with NCI/ADR-RES is 26.2 µM (inactive); with OVCAR-4 it was 39.4 µM (inactive); in the experiment with OVCAR-5 it was 17.9 µM (inactive); in the experiment with OVCAR-8 it was 22.9 µM (inactive); with PC-3 it was 24 µM (inactive); in the experiment on RXF 393, 16.2 µM (inactive). Moreover, the GI50 is 18.3 µM (inactive) in the experiment with SF-268; 17.3 µM (inactive) in the experiment with SF-539; > 100 µM (inactive) with SK-OV-3; 18 µM (inactive) with SNB-19; 17.9 µM (inactive) with UACC-62.

As to `COc1ccc(/N=N/c2c(C)c(C#N)c(=S)n(C3OC(COC(C)=O)C(OC(C)=O)C(OC(C)=O)C3OC(C)=O)c2C)cc1` (stereo not drawn), the GI50 is > 100 µM (inactive) with CCRF-CEM; 24.6 µM (inactive) in the experiment on HOP-92; > 100 µM (inactive) with MCF7; > 100 µM (inactive) with MDA-N; > 100 µM (inactive) in the experiment on MOLT-4; > 100 µM (inactive) in the experiment with NCI/ADR-RES. Moreover, the GI50 in the experiment with OVCAR-4 was > 100 µM (inactive); in the experiment with OVCAR-5 it was > 100 µM (inactive); in the experiment on PC-3, > 100 µM (inactive); in the experiment on RXF 393 it was 62.5 µM (inactive); in the experiment with SF-268 it was > 100 µM (inactive); with SF-539, > 100 µM (inactive). The GI50 in the experiment on SK-MEL-5 is > 100 µM (inactive); with SK-OV-3 it was 54.5 µM (inactive); with SNB-19 it was > 100 µM (inactive); in the experiment on UACC-62, > 100 µM (inactive).

Regarding `COc1ccc(C2CC(=O)CC(c3ccc(OC)cc3)C23C(=O)NC(=S)NC3=O)cc1` (stereo not drawn), the GI50 is > 100 µM (inactive) in the experiment with CCRF-CEM; over 100 µM in the experiment on HCT-15; > 100 µM (inactive) in the experiment with HOP-92; > 100 µM (inactive) with MCF7; > 100 µM (inactive) in the experiment on MDA-N; > 100 µM (inactive) with MOLT-4. Besides, the GI50 with NCI-H522, in the experiment with NCI/ADR-RES, in the experiment on OVCAR-4, in the experiment on OVCAR-5, in the experiment with OVCAR-8 and in the experiment on PC-3 was > 100 µM (inactive) in each case. In addition, the GI50 in the experiment on RXF 393, with SF-268, with SF-539, in the experiment with SK-MEL-5, with SNB-19 and in the experiment with UACC-62 was > 100 µM (inactive) throughout.
